In one data set the test system is skin surface. The experiment in a line: Exfoliation (desquamation) activity, D-SQUAME skin surface sampling discs. The following applies: for D-SQUAME Score: scoring scale 0 to 5. In kind it is in vivo. An excerpt:
D-SQUAME skin surface sampling Discs (CuDerm Corporation) were employed. The disc was applied to a clean, dry skin surface and pressed firmly for a few seconds using the thumb or fingertips. The disc was then transferred to a black square on the storage card. The disc was viewed at an angle with strong light and compared with 5 reference patterns provided by CuDerm Corporation. Very dry skin produces a heavy amount of scaling similar to pattern 5. Normal skin produces a few areas of small clumps of cells or a fine even single layer of cells. The scoring scale employed was as follows: [table] […] The vehicle was tested, as a control. The vehicle (ANEW All-In-One SPF-15 Self-Adjusting Perfecting Creme base without the glycolic acid) employed was the same in all cases, only the test compound(s) differed.

For the next data set, the system named is Salmonella typhimarium. As to conditions: literature report; cited from earlier work.
Data set [1] can be described thus: Skin irritation (PII) of test formulation. In kind it is in vivo.
In the next data set the test system is Escherichia coli. In words: Zone of Inhibition Test. In kind it is cell-based. The following applies: E. coli, 1000 μl, isopropyl palmitate solvent.
The next data set has as its system Candida albicans. The experiment in a line: Zone of Inhibition Test. As to conditions: C. albicans, 1000 μl, isopropyl palmitate solvent. The format is cell-based.
The subject of a further data set is Staphylococcus aureus. In words: Zone of Inhibition Test. The following applies: S. aureus, 1000 μl, isopropyl palmitate solvent. The format is cell-based.
Data set [2] has as its system Staphylococcus epidermidis. In words: Zone of Inhibition Test. The format is cell-based. As to conditions: S. epidermidis, 1000 μl, isopropyl palmitate solvent.
For another data set, the system named is Pseudomonas aeruginosa. In words: Zone of Inhibition Test. In kind it is cell-based. As to conditions: P. aeruginosa, 1000 μl, isopropyl palmitate solvent.
Another data set deals with Propionibacterium acnes. The experiment in a line: Zone of Inhibition Test. In kind it is cell-based. As to conditions: for Diameter of Zone of Inhibition: P. acnes, 1000 μl, isopropyl palmitate solvent.
The subject of the next data set is Aspergillus niger. The experiment in a line: Zone of Inhibition Test. The format is cell-based. The following applies: A. niger, 1000 μl, isopropyl palmitate solvent.
Data set [3] relates to all of the test microorganisms. The experiment in a line: MLC test, summary over all test microorganisms. The format is cell-based. As to conditions: against all of the test microorganisms of Table 1.
Setting [4] is: 0.5% active in ANEW creme base vehicle.
Setting [5] is: 0.5% active in ANEW creme base vehicle without glycolic acid.

Turning to `O=C(O)c1cc(Cl)ccc1O` [5-Chlorosalicylic Acid, 5-chlorosalicylic acid], in the data set on skin surface (setting [4]), the “D-SQUAME Score” value came to 2.44. Besides, the “Exfoliation activity compared with 0.5% salicylic acid” value in the data set on skin surface (D-SQUAME, Table 5) was “significantly more exfoliating”. For the same compound, the “Exfoliation activity compared with 1.0% salicylic acid” value in the data set on skin surface (D-SQUAME, Table 5) is reported as “equivalent in exfoliation activity”. Moreover, the “Exfoliation activity compared with 2.0% salicylic acid” value in the data set on skin surface (D-SQUAME, Table 5) is “equivalent in exfoliation activity”. Also, the “Exfoliation activity compared with the base vehicle (containing no CLSA or SA)” value with skin surface (D-SQUAME, Table 5) is given as “significantly more exfoliating”. Moreover, in the data set on skin surface (D-SQUAME, Table 5), the “Exfoliation activity compared with the combination of 0.5% chlorosalicylic acid/0.5% salicylic acid” value is “equivalent in exfoliation activity”. Further, the Mutagenic activity result with Salmonella typhimarium is recorded as “non-mutagenic”. Also, the “PII (skin irritation)” value in [1] (setting [5]) turned out to be 0.00. In addition, the “Diameter of Zone of Inhibition” value with Escherichia coli (0.5%) was determined as 0 Millimeters; with Escherichia coli (1.0%), 0 Millimeters; with Candida albicans (0.5%), 0 Millimeters; in the data set with Candida albicans (1.0%), 2.96 Millimeters; in the data set with Staphylococcus aureus (0.5%), 0 Millimeters; in the data set on Staphylococcus aureus (1.0%), 3.04 Millimeters. Further, the “Diameter of Zone of Inhibition” value in data set [2] (0.5%) came to 3.59 Millimeters; in [2] (1.0%), 13.15 Millimeters; in the data set on Pseudomonas aeruginosa (0.5%), 0 Millimeters; in the data set on Pseudomonas aeruginosa (1.0%), 0 Millimeters; in the data set on Propionibacterium acnes (0.5%), 4.87 Millimeters; with Propionibacterium acnes (1.0%), 17.62 Millimeters. Also, the “Diameter of Zone of Inhibition” value was 0 Millimeters with Aspergillus niger (0.5%) and 3.38 Millimeters with Aspergillus niger (1.0%). Also, in the data set on Propionibacterium acnes (results of Tables 2 through 4), the “Activity against Propionibacterium acnes compared with salicylic acid” value is “more active”.
For the compound `O=C(O)c1ccccc1O` [Salicylic Acid, salicylic acid], the entries for the “D-SQUAME Score” value with skin surface (setting [4]), with skin surface (1% active in ANEW creme base vehicle) and in the data set on skin surface (2.% active in ANEW creme base vehicle) were 1.97, 2.28 and 2.56, respectively. Moreover, the “Bacteriocidal activity (in words)” value in data set [3] is “bacteriocidal against all of the test microorganisms”. The “PII (skin irritation)” value in [1] (setting [5]), in [1] (1% active in ANEW creme base vehicle without glycolic acid) and in data set [1] (2.% active in ANEW creme base vehicle without glycolic acid) was 0.00 in each case. In addition, the “Diameter of Zone of Inhibition” value in the data set on Escherichia coli (0.83%) is on record as 0 Millimeters; in the data set with Escherichia coli (1.66%) it was 3.67 Millimeters; in the data set with Candida albicans (0.83%), 4.6 Millimeters; in the data set on Candida albicans (1.66%) it was 11.16 Millimeters; in the data set on Staphylococcus aureus (0.83%), 0 Millimeters; in the data set with Staphylococcus aureus (1.66%), 6.38 Millimeters. For the same compound, the “Diameter of Zone of Inhibition” value in [2] (0.83%) amounted to 4.5 Millimeters; in data set [2] (1.66%), 13.62 Millimeters; with Pseudomonas aeruginosa (0.83%), 0 Millimeters; with Pseudomonas aeruginosa (1.66%), 0 Millimeters; in the data set with Propionibacterium acnes (0.83%) it was 0 Millimeters; in the data set on Propionibacterium acnes (1.66%) it was 15.39 Millimeters. Also, the “Diameter of Zone of Inhibition” value in the data set on Aspergillus niger (0.83%) is 0 Millimeters; in the data set on Aspergillus niger (1.66%), 6.72 Millimeters.

The values above are taken from US20050136015A1, “Topical use of halosalicylic acid derivatives” (priority 2003, published 2005).
